Read-outs that look alike come from different tables or passages of the source.
How the values were obtained:
[1] = target: FLT4 (VEGFR3) (Homo sapiens, UniProt P35916); test: Z'-LYTE SelectScreen biochemical kinase assay FLT4 (VEGFR3)
Description: (§1) Thermo Fisher Scientific SelectScreen™ Biochemical Kinase Profiling Service Z′-LYTE™ Screening Protocol and Assay Conditions Assay Theory
(§2) The […] biochemical assay employs a fluorescence-based, coupled-enzyme format and is based on the differential sensitivity of phosphorylated and non-phosphorylated peptides to proteolytic cleavage. The peptide substrate is labeled with two fluorophores—one at each end—that make up a FRET pair. In the primary reaction, the kinase transfers the gamma-phosphate of ATP to a single tyrosine, serine or threonine residue in a synthetic FRET-peptide. In the secondary reaction, a site-specific protease recognizes and cleaves non-phosphorylated FRET-peptides. Phosphorylation of FRET-peptides suppresses cleavage by the Development Reagent. Cleavage disrupts FRET between the donor (i.e., coumarin) and acceptor (i.e., fluorescein) fluorophores on the FRET-peptide, whereas uncleaved, phosphorylated FRET-peptides maintain FRET. A ratiometric method, which calculates the ratio (Emission Ratio=Coumarin emission (445 nm)/Fluorescein emission (520 nm)) of donor emission to acceptor emission after excitation of the donor fluorophore at 400 nm, is used to quantitate reaction progress, as shown in the equation below. A significant benefit of this ratiometric method for quantitating reaction progress is the elimination of well-to-well variations in FRET-peptide concentration and signal intensities. As a result, the assay yields very high Z′-factor values (>0.7) at a low percent phosphorylation. Both cleaved and uncleaved FRET-peptides contribute to the fluorescence signals and therefore to the Emission Ratio. The extent of phosphorylation of the FRET-peptide can be calculated from the Emission Ratio. The Emission Ratio will remain low if the FRET-peptide is phosphorylated (i.e., no kinase inhibition) and will be high if the FRET-peptide is non-phosphorylated (i.e., kinase inhibition).
(§3) The Test Compounds are screened in 1% DMSO (final) in the well. For 10 point titrations, 3-fold serial dilutions are conducted from the starting concentration of the customer's choosing.
(§4) All Peptide/Kinase Mixtures are diluted to a 2× working concentration in the appropriate Kinase Buffer (see section Kinase Specific Assay Conditions for a complete description).
(§5) All ATP Solutions are diluted to a 4× working concentration in Kinase Buffer (50 mM HEPES pH 7.5, 0.01% BRIJ-35, 10 mM MgCl2, 1 mM EGTA). ATP Km apparent is previously determined using a Z″-LYTE assay.
(§6) The Development Reagent is diluted in Development Buffer (see section Kinase-Specific Assay Conditions—Direct and Cascade for a complete description).
(§7) Bar-coded Corning, low volume NBS, black 384-well plate (Corning Cat. #4514) • 1. 100 nL—100× Test Compound in 100% DMSO • 2. 2.4 μL—Kinase buffer • 3. 5 μL—2× Peptide/Kinase Mixture • 4. 2.5 μL—4×ATP Solution • 5. 30—second plate shake • 6. 60—minute Kinase Reaction incubation at room temperature • 7. 5 μL—Development Reagent Solution • 8. 30—second plate shake • 9. 60—minute Development Reaction incubation at room temperature • 10. Read on fluorescence plate reader and analyze the data Z′-LYTE Assay Controls
(§8) SelectScreen Kinase Profiling Service uses XLfit from IDBS. The dose response curve is curve fit to model number 205 (sigmoidal dose-response model).
The 2×FLT4 (VEGFR3)/Tyr 04 mixture is prepared in 50 mM HEPES pH 7.5, 0.01% BRIJ-35, 10 mM MgCl2, 4 mM MnCl2, 1 mM EGTA, 2 mM DTT. The final 10 μL Kinase Reaction consists of 2-10.5 ng FLT4 (VEGFR3) and 2 μM Tyr 04 in 50 mM HEPES pH 7.5, 0.01% BRIJ-35, 10 mM MgCl2, 2 mM MnCl2, 1 mM EGTA, 1 mM DTT. After the 1 hour Kinase Reaction incubation, 5 μL of a 1:64 dilution of Development Reagent B is added.

[2] = target: CDK5/p35 (Homo sapiens, UniProt Q00535); test: Z'-LYTE SelectScreen biochemical kinase assay CDK5/p35
CDK5/p35, sequence (Q00535 whole entry): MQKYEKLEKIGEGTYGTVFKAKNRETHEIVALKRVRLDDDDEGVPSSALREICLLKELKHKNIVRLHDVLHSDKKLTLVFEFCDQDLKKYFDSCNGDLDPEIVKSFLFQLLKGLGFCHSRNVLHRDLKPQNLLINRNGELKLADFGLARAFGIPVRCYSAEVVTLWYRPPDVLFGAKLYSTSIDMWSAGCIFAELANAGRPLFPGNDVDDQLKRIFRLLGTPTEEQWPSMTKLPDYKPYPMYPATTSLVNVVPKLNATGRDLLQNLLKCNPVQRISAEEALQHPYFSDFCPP
CDK5/p35, sequence (Q15078 whole entry partner): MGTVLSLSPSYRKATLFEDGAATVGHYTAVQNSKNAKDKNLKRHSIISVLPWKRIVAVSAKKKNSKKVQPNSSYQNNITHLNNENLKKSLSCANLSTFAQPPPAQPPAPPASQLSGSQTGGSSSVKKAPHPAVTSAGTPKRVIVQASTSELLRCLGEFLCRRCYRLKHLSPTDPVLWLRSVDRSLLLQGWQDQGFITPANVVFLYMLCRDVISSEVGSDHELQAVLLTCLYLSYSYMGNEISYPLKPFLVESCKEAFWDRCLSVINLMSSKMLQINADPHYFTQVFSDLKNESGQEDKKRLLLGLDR
Description: as §1, §2, §3, §4, §5, §6, §7, §8
(§9) The 2×CDK5/p35/Ser/Thr 12 mixture is prepared in 50 mM HEPES pH 7.5, 0.01% BRIJ-35, 10 mM MgCl2, 1 mM EGTA. The final 10 μL Kinase Reaction consists of 0.14-1.3 ng CDK5/p35 and 2 μM Ser/Thr 12 in 50 mM HEPES pH 7.5, 0.01% BRIJ-35, 10 mM MgCl2, 1 mM EGTA. After the 1 hour Kinase Reaction incubation, 5 μL of a 1:4096 dilution of Development Reagent A is added.

[3] = target: LYN B (Homo sapiens, UniProt P07948); test: Z'-LYTE SelectScreen biochemical kinase assay LYN B
LYN B, sequence (P07948 1-491 isoform P07948-2): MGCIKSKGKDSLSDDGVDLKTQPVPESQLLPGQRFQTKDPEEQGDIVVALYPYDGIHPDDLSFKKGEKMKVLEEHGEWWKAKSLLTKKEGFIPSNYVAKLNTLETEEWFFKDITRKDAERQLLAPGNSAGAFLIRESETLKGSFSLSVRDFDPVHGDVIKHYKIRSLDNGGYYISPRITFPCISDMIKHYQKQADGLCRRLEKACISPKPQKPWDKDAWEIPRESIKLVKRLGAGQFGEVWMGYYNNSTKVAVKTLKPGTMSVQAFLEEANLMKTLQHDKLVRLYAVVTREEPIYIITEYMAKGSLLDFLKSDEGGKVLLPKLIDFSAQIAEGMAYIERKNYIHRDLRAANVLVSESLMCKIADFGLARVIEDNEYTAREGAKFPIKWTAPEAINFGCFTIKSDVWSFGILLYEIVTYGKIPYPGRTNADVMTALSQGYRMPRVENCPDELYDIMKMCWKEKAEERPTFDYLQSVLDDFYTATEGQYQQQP
Description: as §1, §2, §3, §4, §5, §6, §7, §8
as §9, with “2×LYN B/Tyr 02” for “2×CDK5/p35/Ser/Thr 12”, “0.85-14.8” for “0.14-1.3”, “LYN B” for “CDK5/p35”, “Tyr 02” for “Ser/Thr 12”, “1:128” for “1:4096”

[4] = target: CSF1R (FMS) (Homo sapiens, UniProt P07333); test: Z'-LYTE SelectScreen biochemical kinase assay CSF1R (FMS)
CSF1R (FMS), sequence (P07333 20-972): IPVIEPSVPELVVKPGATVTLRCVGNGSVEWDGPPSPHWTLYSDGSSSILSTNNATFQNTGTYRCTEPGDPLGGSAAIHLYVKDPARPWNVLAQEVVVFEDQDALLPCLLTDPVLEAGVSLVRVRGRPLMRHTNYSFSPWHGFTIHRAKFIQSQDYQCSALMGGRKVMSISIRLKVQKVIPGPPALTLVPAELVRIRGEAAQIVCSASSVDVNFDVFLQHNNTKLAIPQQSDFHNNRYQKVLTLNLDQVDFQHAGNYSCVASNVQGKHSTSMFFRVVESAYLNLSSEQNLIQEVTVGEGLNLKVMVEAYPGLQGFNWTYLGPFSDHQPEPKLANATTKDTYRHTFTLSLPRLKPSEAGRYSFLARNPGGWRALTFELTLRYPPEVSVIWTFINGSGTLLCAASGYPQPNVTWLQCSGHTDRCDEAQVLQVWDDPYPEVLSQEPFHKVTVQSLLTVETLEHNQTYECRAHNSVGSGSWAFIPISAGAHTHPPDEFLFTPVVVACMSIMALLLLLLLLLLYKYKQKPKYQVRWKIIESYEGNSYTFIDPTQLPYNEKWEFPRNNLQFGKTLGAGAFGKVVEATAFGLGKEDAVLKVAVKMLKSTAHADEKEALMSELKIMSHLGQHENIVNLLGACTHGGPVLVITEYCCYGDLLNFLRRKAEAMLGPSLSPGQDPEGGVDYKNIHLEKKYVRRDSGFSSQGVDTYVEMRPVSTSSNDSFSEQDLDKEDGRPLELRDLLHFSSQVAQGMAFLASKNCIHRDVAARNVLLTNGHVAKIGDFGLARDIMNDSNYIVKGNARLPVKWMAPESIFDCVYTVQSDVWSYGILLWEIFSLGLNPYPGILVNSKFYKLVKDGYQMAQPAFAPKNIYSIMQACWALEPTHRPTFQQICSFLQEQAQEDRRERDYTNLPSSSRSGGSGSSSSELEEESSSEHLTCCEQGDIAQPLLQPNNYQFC
Description: as §1, §2, §3, §4, §5, §6, §7, §8
The 2×CSF1R (FMS)/Tyr 01 mixture is prepared in 50 mM HEPES pH 7.5, 0.01% BRIJ-35, 10 mM MgCl2, 1 mM EGTA. The final 10 μL Kinase Reaction consists of 0.2-40 ng CSF1R (FMS) and 2 μM Tyr 01 in 50 mM HEPES pH 7.5, 0.01% BRIJ-35, 10 mM MgCl2, 1 mM EGTA. After the 1 hour Kinase Reaction incubation, 5 μL of a 1:256 dilution of Development Reagent B is added.

[5] = 10 μmolar compound concentration, ATP at Km app, read-out: FLT4 (VEGFR3) inhibition
[6] = read-out: % Inhibition mean FLT4 (VEGFR3)
[7] = 10 μmolar compound concentration, ATP at Km app, read-out: CDK5/p35 inhibition
[8] = read-out: % Inhibition mean CDK5/p35
[9] = 10 μmolar compound concentration, ATP at Km app, read-out: LYN B inhibition
[10] = read-out: % Inhibition mean LYN B
[11] = 10 μmolar compound concentration, ATP at Km app, read-out: CSF1R (FMS) inhibition
[12] = read-out: % Inhibition mean CSF1R (FMS)

FLT4 (VEGFR3), sequence (P35916 25-1363): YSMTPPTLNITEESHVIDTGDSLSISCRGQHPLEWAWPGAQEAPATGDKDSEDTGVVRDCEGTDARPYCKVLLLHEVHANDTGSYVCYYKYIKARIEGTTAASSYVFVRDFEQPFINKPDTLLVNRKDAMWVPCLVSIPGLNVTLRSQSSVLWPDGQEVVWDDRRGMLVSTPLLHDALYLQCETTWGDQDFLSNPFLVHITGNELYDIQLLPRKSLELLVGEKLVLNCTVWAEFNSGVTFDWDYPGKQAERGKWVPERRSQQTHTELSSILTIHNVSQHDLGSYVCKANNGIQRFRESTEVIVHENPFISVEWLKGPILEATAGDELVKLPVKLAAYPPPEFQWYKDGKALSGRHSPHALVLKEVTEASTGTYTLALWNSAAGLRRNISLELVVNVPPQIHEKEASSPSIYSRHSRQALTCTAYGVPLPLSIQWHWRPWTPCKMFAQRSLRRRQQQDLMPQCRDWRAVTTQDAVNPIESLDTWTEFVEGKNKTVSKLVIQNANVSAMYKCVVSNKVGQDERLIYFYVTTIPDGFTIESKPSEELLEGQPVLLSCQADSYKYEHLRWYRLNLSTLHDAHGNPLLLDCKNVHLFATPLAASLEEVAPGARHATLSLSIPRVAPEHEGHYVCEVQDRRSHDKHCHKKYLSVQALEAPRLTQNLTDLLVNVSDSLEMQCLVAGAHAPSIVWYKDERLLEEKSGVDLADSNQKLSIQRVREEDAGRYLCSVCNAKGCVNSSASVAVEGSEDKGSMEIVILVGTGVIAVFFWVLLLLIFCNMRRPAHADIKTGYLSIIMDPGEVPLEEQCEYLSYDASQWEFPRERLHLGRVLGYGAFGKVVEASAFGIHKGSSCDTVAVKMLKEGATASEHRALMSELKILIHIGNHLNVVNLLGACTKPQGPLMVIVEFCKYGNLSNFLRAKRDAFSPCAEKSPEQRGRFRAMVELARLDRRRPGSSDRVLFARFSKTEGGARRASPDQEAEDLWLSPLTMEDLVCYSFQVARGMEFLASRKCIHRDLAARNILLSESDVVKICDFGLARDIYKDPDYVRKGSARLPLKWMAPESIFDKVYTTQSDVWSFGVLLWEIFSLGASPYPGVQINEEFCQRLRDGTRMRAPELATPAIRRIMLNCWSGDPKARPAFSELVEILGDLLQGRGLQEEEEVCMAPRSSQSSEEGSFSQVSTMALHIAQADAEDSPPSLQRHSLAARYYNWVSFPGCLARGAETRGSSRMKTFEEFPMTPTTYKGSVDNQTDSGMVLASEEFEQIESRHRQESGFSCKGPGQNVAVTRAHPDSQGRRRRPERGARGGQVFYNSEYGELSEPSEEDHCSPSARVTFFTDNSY

Row | Structure (SMILES) | inhibition at 10 µM [1, 5] [%] | inhibition at 10 µM [1, 6] [%] | inhibition at 10 µM [2, 7] [%] | inhibition at 10 µM [2, 8] [%] | inhibition at 10 µM [3, 9] [%] | inhibition at 10 µM [3, 10] [%] | inhibition at 10 µM [4, 11] [%] | inhibition at 10 µM [4, 12] [%] | inhibition at 10 µM ([1]; read-out: % Inhibition mean) [%] | inhibition at 10 µM ([2]; read-out: % Inhibition mean) [%] | inhibition at 10 µM ([3]; read-out: % Inhibition mean) [%] | inhibition at 10 µM ([4]; read-out: % Inhibition mean) [%]
1 | Cc1cc(F)ccc1-c1cccn2nc(NC3CCc4c(cnn4CC(C)C)C3)nc12 (stereo not drawn) [Example 45, [8-(4-fluoro-2-methyl-phenyl)-[1,2,4]triazolo[1,5-a]pyridine-2-yl]-(1-isobutyl-4,5,6,7-tetrahydro-1H-indazol-5-yl)-amine] | < 40 | 33 | < 40 | 8 | < 40 | 15 | 40 to 80 | 40 | – | – | – | –
2 | CCCn1ncc2c1CCC(Nc1nc3c(-c4ccc(F)cc4C)cccn3n1)C2 (stereo not drawn) [Example 43, [8-(4-fluoro-2-methyl-phenyl)-[1,2,4]triazolo[1,5-a]pyridine-2-yl]-(1-propyl-4,5,6,7-tetrahydro-1H-indazol-5-yl)-amine] | < 40 | 11 | < 40 | 36 | < 40 | 22 | < 40 | 28 | – | – | – | –
3 | CCn1nc(Cl)c2c1CCC(Nc1nc3c(-c4ccc(F)cc4C)cccn3n1)C2 (stereo not drawn) [Example 48, (3-Chloro-1-ethyl-4,5,6,7-tetrahydro-1H-indazol-5-yl)-[8-(4-fluoro-2-methyl-phenyl)-[1,2,4]triazolo[1,5-a]pyridine-2-yl]-amine] | < 40 | 19 | < 40 | 38 | < 40 | 22 | < 40 | 15 | – | – | – | –
4 | CC1(C)C(=O)Nc2ccc(Nc3nc4c(-c5cccc(F)c5)cccn4n3)cc21 [Cpd. 263 in WO09155551, reference compound] | > 80 | – | > 80 | – | > 80 | – | > 80 | – | 103 | 83 | 98 | 93
5 | CCn1ncc2c1C(C)CC(Nc1nc3c(-c4cc(F)c(F)c(F)c4)cccn3n1)C2 (stereo not drawn) [Example 49, (1-Ethyl-7-methyl-4,5,6,7-tetrahydro-1H-indazol-5-yl)-[8-(3,4,5-trifluoro-phenyl)-[1,2,4]triazolo[1,5-a]pyridine-2-yl]-amine] | < 40 | 33 | < 40 | 7 | < 40 | 25 | < 40 | 34 | – | – | – | –
6 | CCn1nnc2c1CCC(Nc1nc3c(-c4ccc(F)cc4C)cccn3n1)C2 (stereo not drawn) [Example 51, (1-Ethyl-4,5,6,7-tetrahydro-1H-benzotriazol-5-yl)-[8-(4-fluoro-2-methyl-phenyl)-[1,2,4]triazolo[1,5-a]pyridine-2-yl]-amine] | < 40 | 15 | < 40 | 23 | < 40 | 7 | < 40 | 9 | – | – | – | –
7 | CCCCn1ncc2c1CCC(Nc1nc3c(-c4ccc(F)cc4C)cccn3n1)C2 (stereo not drawn) [Example 46, [8-(4-fluoro-2-methyl-phenyl)-[1,2,4]triazolo[1,5-a]pyridine-2-yl]-(1-butyl-4,5,6,7-tetrahydro-1H-indazol-5-yl)-amine] | < 40 | 29 | < 40 | 34 | < 40 | 23 | < 40 | 24 | – | – | – | –

Other lines, results leading:

Row | inhibition at 10 µM [1, 5] [%] | inhibition at 10 µM [1, 6] [%] | inhibition at 10 µM [2, 7] [%] | inhibition at 10 µM [2, 8] [%] | inhibition at 10 µM [3, 9] [%] | inhibition at 10 µM [3, 10] [%] | inhibition at 10 µM [4, 11] [%] | inhibition at 10 µM [4, 12] [%] | inhibition at 10 µM ([1]; read-out: % Inhibition mean) [%] | inhibition at 10 µM ([2]; read-out: % Inhibition mean) [%] | inhibition at 10 µM ([3]; read-out: % Inhibition mean) [%] | inhibition at 10 µM ([4]; read-out: % Inhibition mean) [%] | Structure (SMILES)
8 | < 40 | 32 | 40 to 80 | 47 | < 40 | 13 | 40 to 80 | 48 | – | – | – | – | CCn1ncc2c1CCC(Nc1nc3c(-c4cccnc4)cccn3n1)C2 (stereo not drawn) [Example 63, (1-Ethyl-4,5,6,7-tetrahydro-1H-indazol-5-yl)-(8-pyridin-3-yl-[1,2,4]triazolo[1,5-a]pyridine-2-yl)-amine]
9 | 40 to 80 | 52 | 40 to 80 | 44 | < 40 | 22 | 40 to 80 | 66 | – | – | – | – | CCn1ncc2c1CCC(Nc1nc3c(-c4cnccc4OC)cccn3n1)C2 (stereo not drawn) [Example 68, (1-Ethyl-4,5,6,7-tetrahydro-1H-indazol-5-yl)-[8-(4-methoxy-pyridin-3-yl)-[1,2,4]triazolo[1,5-a]pyridine-2-yl]-amine]
10 | < 40 | 21 | < 40 | 25 | < 40 | 17 | < 40 | 18 | – | – | – | – | CCn1ncc2c1CC[C@@H](Nc1nc3c(-c4ccc(F)c(Cl)c4)cccn3n1)C2 [Example R-61, (R)-[8-(3-Chloro-4-fluoro-phenyl)-[1,2,4]triazolo[1,5-a]pyridine-2-yl]-(1-ethyl-4,5,6,7-tetrahydro-1H-indazol-5-yl)-amine]
11 | – | 35 | 40 to 80 | 52 | < 40 | 19 | 40 to 80 | 58 | – | – | – | – | CCn1ncc2c1CCC(Nc1nc3c(-c4ccccc4C)cccn3n1)C2 (stereo not drawn) [Example 56, (1-Ethyl-4,5,6,7-tetrahydro-1H-indazol-5-yl)-[8-(2-methyl-phenyl)-[1,2,4]triazolo[1,5-a]pyridine-2-yl]-amine]

Reference: US11339161B2, “Triazolo pyridines as modulators of gamma-secretase” (Boehringer Ingelheim International GmbH, priority 2017, dated 2022)
